Tested on: 958667-338-R-J2-PDC tumor spheroids viability
Test: Anticancer human tumor 958667-338-R-J2-PDC patient-derived colon adenocarcinoma cell line growth inhibition [PI3K]
Settings: spheroids with HUVEC and MSC; for IC50: curve of first compound; for viability, T/C: stronger effect = lower value
In short: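 Multi-cell spheroids combine tumor cells with HUVEC and human MSCs, treated with targeted agents alone or with inavolisib, alpelisib, duvelisib or copanlisib. Concentrations fall in half-log steps from at or near clinical Cmax, or from 10 microM where Cmax is unknown; viability read-out.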

[1] = second compound 0.00316 µM, first compound 0.000316 µM
[2] = second compound 0.00316 µM, first compound 0.001 µM
[3] = second compound 0.00316 µM, first compound 0.00316 µM
[4] = second compound 0.00316 µM, first compound 0.01 µM
[5] = second compound 0.00316 µM, first compound 0.0316 µM
[6] = second compound 0.00316 µM, first compound 0.1 µM
[7] = second compound 0.01 µM, first compound 0.000316 µM
[8] = second compound 0.01 µM, first compound 0.001 µM
[9] = second compound 0.01 µM, first compound 0.00316 µM
[10] = second compound 0.01 µM, first compound 0.01 µM
[11] = second compound 0.01 µM, first compound 0.0316 µM
[12] = second compound 0.01 µM, first compound 0.1 µM
[13] = second compound 0.0316 µM, first compound 0.000316 µM
[14] = second compound 0.0316 µM, first compound 0.001 µM
[15] = second compound 0.0316 µM, first compound 0.00316 µM
[16] = second compound 0.0316 µM, first compound 0.01 µM
[17] = second compound 0.0316 µM, first compound 0.0316 µM
[18] = second compound 0.0316 µM, first compound 0.1 µM
[19] = second compound 0.1 µM, first compound 0.000316 µM
[20] = second compound 0.1 µM, first compound 0.001 µM
[21] = second compound 0.1 µM, first compound 0.00316 µM
[22] = second compound 0.1 µM, first compound 0.01 µM
[23] = second compound 0.1 µM, first compound 0.0316 µM
[24] = second compound 0.1 µM, first compound 0.1 µM
[25] = second compound 0.316 µM, first compound 0.000316 µM
[26] = second compound 0.316 µM, first compound 0.001 µM
[27] = second compound 0.316 µM, first compound 0.00316 µM
[28] = second compound 0.316 µM, first compound 0.01 µM
[29] = second compound 0.316 µM, first compound 0.0316 µM
[30] = second compound 0.316 µM, first compound 0.1 µM
[31] = second compound 1 µM, first compound 0.000316 µM
[32] = second compound 1 µM, first compound 0.001 µM
[33] = second compound 1 µM, first compound 0.00316 µM
[34] = second compound 1 µM, first compound 0.01 µM
[35] = second compound 1 µM, first compound 0.0316 µM
[36] = second compound 1 µM, first compound 0.1 µM
[37] = second compound 0.00316 µM, first compound 0.316 µM
[38] = second compound 0.00316 µM, first compound 1 µM
[39] = second compound 0.00316 µM, first compound 3.16 µM
[40] = second compound 0.00316 µM, first compound 10 µM
[41] = second compound 0.01 µM, first compound 0.316 µM
[42] = second compound 0.01 µM, first compound 1 µM
[43] = second compound 0.01 µM, first compound 3.16 µM
[44] = second compound 0.01 µM, first compound 10 µM
[45] = second compound 0.0316 µM, first compound 0.316 µM
[46] = second compound 0.0316 µM, first compound 1 µM
[47] = second compound 0.0316 µM, first compound 3.16 µM
[48] = second compound 0.0316 µM, first compound 10 µM
[49] = second compound 0.1 µM, first compound 0.316 µM
[50] = second compound 0.1 µM, first compound 1 µM
[51] = second compound 0.1 µM, first compound 3.16 µM
[52] = second compound 0.1 µM, first compound 10 µM
[53] = second compound 0.316 µM, first compound 0.316 µM
[54] = second compound 0.316 µM, first compound 1 µM
[55] = second compound 0.316 µM, first compound 3.16 µM
[56] = second compound 0.316 µM, first compound 10 µM
[57] = second compound 1 µM, first compound 0.316 µM
[58] = second compound 1 µM, first compound 1 µM
[59] = second compound 1 µM, first compound 3.16 µM
[60] = second compound 1 µM, first compound 10 µM
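Also: spheroids exposed to compounds for seven days before readout.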

## CC(=O)c1c(C)c2cnc(Nc3ccc(N4CCNCC4)cn3)nc2n(C2CCCC2)c1=O + COc1c(OCCCN2CCOCC2)ccc2c3n(c(=NC(=O)c4cnc(N)nc4)nc12)CCN3
Second compound 0.00316 µM
  IC50: > 100 nM
Second compound 0.01 µM
  IC50: > 100 nM
Second compound 0.0316 µM
  IC50: > 100 nM
Second compound 0.1 µM
  IC50: > 100 nM
Second compound 0.316 µM
  IC50: < 0.316 nM
Second compound 1 µM
  IC50: < 0.316 nM
[1]
  viability, T/C: 103%
[2]
  viability, T/C: 101%
[3]
  viability, T/C: 97.2%
[4]
  viability, T/C: 98.2%
[5]
  viability, T/C: 108%
[6]
  viability, T/C: 62.8%
[7]
  viability, T/C: 82.9%
[8]
  viability, T/C: 67.7%
[9]
  viability, T/C: 90.8%
[10]
  viability, T/C: 79.1%
[11]
  viability, T/C: 83.3%
[12]
  viability, T/C: 69.9%
[13]
  viability, T/C: 75.7%
[14]
  viability, T/C: 94.8%
[15]
  viability, T/C: 75.5%
[16]
  viability, T/C: 56.7%
[17]
  viability, T/C: 67.3%
[18]
  viability, T/C: 56.3%
[19]
  viability, T/C: 64.9%
[20]
  viability, T/C: 61.8%
[21]
  viability, T/C: 51.5%
[22]
  viability, T/C: 70.2%
[23]
  viability, T/C: 62.7%
[24]
  viability, T/C: 50.7%
[25]
  viability, T/C: 37.2%
[26]
  viability, T/C: 42.5%
[27]
  viability, T/C: 49.1%
[28]
  viability, T/C: 42.9%
[29]
  viability, T/C: 35%
[30]
  viability, T/C: 26.6%
[31]
  viability, T/C: 17.8%
[32]
  viability, T/C: 20.3%
[33]
  viability, T/C: 18%
[34]
  viability, T/C: 20.3%
[35]
  viability, T/C: 22.3%
[36]
  viability, T/C: 17.2%

## CC(C)n1nc(-c2ccc3oc(N)nc3c2)c2c(N)ncnc21 + COc1c(OCCCN2CCOCC2)ccc2c3n(c(=NC(=O)c4cnc(N)nc4)nc12)CCN3
Second compound 0.00316 µM
  IC50: 77.8 nM
Second compound 0.01 µM
  IC50: 60.9 nM
Second compound 0.0316 µM
  IC50: 22.8 nM
Second compound 0.1 µM
  IC50: 9.88 nM
Second compound 0.316 µM
  IC50: < 0.316 nM
Second compound 1 µM
  IC50: < 0.316 nM
[1]
  viability, T/C: 88.1%
[2]
  viability, T/C: 112%
[3]
  viability, T/C: 99.2%
[4]
  viability, T/C: 103%
[5]
  viability, T/C: 77.4%
[6]
  viability, T/C: 42.4%
[7]
  viability, T/C: 73.6%
[8]
  viability, T/C: 70%
[9]
  viability, T/C: 85.2%
[10]
  viability, T/C: 71.6%
[11]
  viability, T/C: 74.7%
[12]
  viability, T/C: 31.3%
[13]
  viability, T/C: 69.6%
[14]
  viability, T/C: 74.5%
[15]
  viability, T/C: 70%
[16]
  viability, T/C: 58.1%
[17]
  viability, T/C: 47%
[18]
  viability, T/C: 25.2%
[19]
  viability, T/C: 67.3%
[20]
  viability, T/C: 66.1%
[21]
  viability, T/C: 62%
[22]
  viability, T/C: 44.2%
[23]
  viability, T/C: 41%
[24]
  viability, T/C: 21.3%
[25]
  viability, T/C: 41.4%
[26]
  viability, T/C: 37%
[27]
  viability, T/C: 34.7%
[28]
  viability, T/C: 33.1%
[29]
  viability, T/C: 25.1%
[30]
  viability, T/C: 14.7%
[31]
  viability, T/C: 17.2%
[32]
  viability, T/C: 16.5%
[33]
  viability, T/C: 13.6%
[34]
  viability, T/C: 17.5%
[35]
  viability, T/C: 15.8%
[36]
  viability, T/C: 11.5%

## CCCS(=O)(=O)Nc1ccc(F)c(C(=O)c2c[nH]c3ncc(-c4ccc(Cl)cc4)cc23)c1F + COc1c(OCCCN2CCOCC2)ccc2c3n(c(=NC(=O)c4cnc(N)nc4)nc12)CCN3
Second compound 0.00316 µM
  IC50: 5880 nM
Second compound 0.01 µM
  IC50: 6020 nM
Second compound 0.0316 µM
  IC50: 4970 nM
Second compound 0.1 µM
  IC50: 4080 nM
Second compound 0.316 µM
  IC50: < 31.6 nM
Second compound 1 µM
  IC50: < 31.6 nM
[5]
  viability, T/C: 126%
[6]
  viability, T/C: 93.4%
[37]
  viability, T/C: 94.4%
[38]
  viability, T/C: 109%
[39]
  viability, T/C: 99.5%
[40]
  viability, T/C: 7.46%
[11]
  viability, T/C: 89.1%
[12]
  viability, T/C: 93.7%
[41]
  viability, T/C: 111%
[42]
  viability, T/C: 84.8%
[43]
  viability, T/C: 110%
[44]
  viability, T/C: 12.4%
[17]
  viability, T/C: 63%
[18]
  viability, T/C: 67.5%
[45]
  viability, T/C: 74.5%
[46]
  viability, T/C: 74.5%
[47]
  viability, T/C: 103%
[48]
  viability, T/C: 8.73%
[23]
  viability, T/C: 67.4%
[24]
  viability, T/C: 52.2%
[49]
  viability, T/C: 61.7%
[50]
  viability, T/C: 61.8%
[51]
  viability, T/C: 63.2%
[52]
  viability, T/C: 10.3%
[29]
  viability, T/C: 31.6%
[30]
  viability, T/C: 49.6%
[53]
  viability, T/C: 38.3%
[54]
  viability, T/C: 32.2%
[55]
  viability, T/C: 37.5%
[56]
  viability, T/C: 6.35%
[35]
  viability, T/C: 19%
[36]
  viability, T/C: 23.5%
[57]
  viability, T/C: 16.7%
[58]
  viability, T/C: 20.8%
[59]
  viability, T/C: 19.2%
[60]
  viability, T/C: 5.1%

## CNC(=O)c1ccc(N2C(=S)N(c3ccc(C#N)c(C(F)(F)F)c3)C(=O)C2(C)C)cc1F + COc1c(OCCCN2CCOCC2)ccc2c3n(c(=NC(=O)c4cnc(N)nc4)nc12)CCN3
Second compound 0.00316 µM
  IC50: > 10000 nM
Second compound 0.01 µM
  IC50: > 10000 nM
Second compound 0.0316 µM
  IC50: > 10000 nM
Second compound 0.1 µM
  IC50: 4270 nM
Second compound 0.316 µM
  IC50: < 31.6 nM
Second compound 1 µM
  IC50: < 31.6 nM
[5]
  viability, T/C: 95.2%
[6]
  viability, T/C: 97.8%
[37]
  viability, T/C: 91.4%
[38]
  viability, T/C: 96.5%
[39]
  viability, T/C: 109%
[40]
  viability, T/C: 82.1%
[11]
  viability, T/C: 81.9%
[12]
  viability, T/C: 88.9%
[41]
  viability, T/C: 90.1%
[42]
  viability, T/C: 82.7%
[43]
  viability, T/C: 105%
[44]
  viability, T/C: 92%
[17]
  viability, T/C: 68.5%
[18]
  viability, T/C: 74.7%
[45]
  viability, T/C: 74.7%
[46]
  viability, T/C: 68.2%
[47]
  viability, T/C: 92.7%
[48]
  viability, T/C: 67.8%
[23]
  viability, T/C: 54.9%
[24]
  viability, T/C: 61.4%
[49]
  viability, T/C: 56.2%
[50]
  viability, T/C: 59.7%
[51]
  viability, T/C: 50.5%
[52]
  viability, T/C: 42.8%
[29]
  viability, T/C: 40.9%
[30]
  viability, T/C: 47.6%
[53]
  viability, T/C: 38.8%
[54]
  viability, T/C: 33.2%
[55]
  viability, T/C: 31.5%
[56]
  viability, T/C: 22.7%
[35]
  viability, T/C: 19.5%
[36]
  viability, T/C: 20.9%
[57]
  viability, T/C: 17.4%
[58]
  viability, T/C: 18.3%
[59]
  viability, T/C: 16%
[60]
  viability, T/C: 9.91%
